In patent publication US10300027B2, “Effective sensitizing dose of a gelled immunomodulating topical composition” (Phio Pharmaceuticals Corp., priority 2010, dated 2019):
Values joined by “and” are separate entries in the source; they are usually repeats but may differ in a detail not shown here. Equal entries are not always repeated.

Key:
non-genital warts [1] = assay: Example 1: randomized, double-blind, placebo control study of low dose DPCP gel for non-genital warts; type: in vivo, human
Description: Patients were initially sensitized with 0.4% DPCP gel at the primary wart site. Approximately 14 days later and weekly thereafter for various periods, a challenge dose is then applied. A challenge dose of 0.04% DPCP was employed. The DPCP used was incorporated in a unique blend of surfactants, a viscosity agent, and a preservative.
A single center, randomized, double-blind, placebo control study using low dose DPCP in a non-volatile vehicle for the treatment of non-genital warts was conducted. Patients were assigned to a treatment or placebo group in a 2:1 fashion. The two study gels were identical in appearance. The treatment group was sensitized with 0.1 ml of 0.4% DPCP gel which was applied to the inner arm and washed off in 24 hours. Fourteen days after the sensitization dose, 0.1 ml of 0.04% DPCP gel was applied to each wart, up to a total of 4 warts, for 7 consecutive weeks (Day 14, 21, 28, 35, 42, 49, 56). A final follow-up examination was performed on day 70. Patients were assessed at baseline and during each of 7 week treatment visits and on day 70 follow up.
Efficacy was based on Lesion Surface Area. The size of each qualifying verruca wart was determined at each visit by measuring the longest dimension (long axis) and the corresponding widest dimension (90 to the long axis).
Immunotherapeutic responses were characterized by grading the erythema, edema, induration, and scaling on a four-point scale: 0 (none) to 4 severe at each visit.
(§1) Efficacy endpoints were determined based on the percent of patients achieving complete and partial eradication as measured by IGAS and reductions in warts lesion surface area. Subjects were assessed for the extent of their immunotherapeutic response to treatment based upon the degree of erythema, edema, induration and scaling. Safety was evaluated at each visit by recording and grading adverse events and ease of ambulation 4 point grading system was used.
Adults 18-75 years of age in general good health with at least one non-genital cutaneous wart 5-20 mm in size were eligible for participation in the study. […] Pregnant or nursing women were excluded. Patients with unstable medical condition or history of immunosuppression were excluded. Use of systemic steroids, immunosuppressants, immunomodulators or cimetidine was not allowed for 4 weeks prior to enrollment. Any prior wart therapy was not allowed for 4 weeks. […] Patients could not be actively enrolled in another clinical trial within the previous 30 days.

non-genital warts [2] = assay: Example 2: randomized, double-blind, placebo control study, 0.04% DPCP gel twice a week for non-genital warts; type: in vivo, human; design: key to Clearance Score: 3 points=Complete clearance; 2 points=partial clearance: >50% reduction in the area of all treated wart; 1 point=partial eradication: <50% reduction in the area of all treated warts; 0 points=treatment failure: complete or partial eradication not achieved; settings: for Clearance Score: per wart of one subject
Description: Institutional review board approval was obtained for this study, which was performed using Good Clinical Practice Guidelines and was compliant with the Code of Federal Regulation of the US Food and Drug Administration. A single center, 24 subject, randomized, double-blind, placebo control study using low dose DPCP in a non-volatile vehicle for the treatment of non-genital warts of established.
Patients are assigned to a treatment or placebo group in a 2:1 fashion. The two study gels are identical in appearance. Both groups are sensitized with 0.1 ml of 0.4% DPCP gel which is applied to the inner arm and washed off in 24 hours. Fourteen days after the sensitization dose, 0.1 ml of 0.04% DPCP gel or placebo is applied to each wart, up to a total of 4 warts, […] for 7 consecutive weeks (Day 14, 21, 28, 35, 42, 49, 56, […]). A final follow-up examination is performed on day 77. Patients are assessed at baseline and during office visits on days 14, 28, and 63 and on the day 77 follow up visit.
Efficacy is based on Lesion Surface Area. The size of each qualifying verruca wart is determined at each visit by measuring the longest dimension (long axis) and the corresponding widest dimension (90 to the long axis).
Investigator's Global Assessment Score (IGAS) is calculated based upon the following 4 point scale: 3 points=Complete clearance; 2 points=partial clearance: >50% reduction in the area of all treated wart; 1 point=partial eradication: <50% reduction in the area of all treated warts; 0 points=treatment failure: complete or partial eradication not achieved.
Immunotherapeutic responses are characterized by grading the erythema, edema, induration, and scaling on a four-point scale: 0 (none) to 4 severe at each visit.
as §1, with “are” for “were”, “is” for “was”
All subjects (both treated and placebo groups) are sensitized with the initial sensitizing dose of 0.4% DPCP gel applied directly to one target wart and to the inner aspect of the right arm and then covered with an occlusive adhesive bandage pad for 24 hours.
The Investigator can determine if sensitization occurred at either of the application sites. If on day 14, the first “treatment visit”, no visible evidence of skin sensitization is observed then the subject can be dropped from the study. If on day 14 the investigator determines that sensitization has occurred, than the first treatment dose using the challenge dose (0.04% DPCP gel or placebo) randomly assigned upon enrollment can be administered by the investigator to all target warts and then covered with an occlusive adhesive bandage pad for 24 hours.
The patient is provided with a tube containing the appropriate challenge product (0.04% DPCP gel or placebo) with detailed instructions on how to apply the product two times per week and the proper handling and storage of the product between applications.
Two times per week the patient can apply the treatment dose (0.04% DPCP gel or placebo) to all target warts and then cover with an occlusive adhesive bandage pad for 24 hours.
The Investigator can apply the treatment dose (0.04% DPCP gel or placebo) to all target warts and then cover with an occlusive adhesive bandage pad for 24 hours.
The Investigator can apply the treatment dose (0.04% DPCP gel or placebo) to all target warts and then cover with an occlusive adhesive bandage pad for 24 hours. […] This is the final treatment. The patient is instructed to stop at home treatments and should return any unused gel. […]

[3] = general statement, no test described; cited from earlier work
[4] = 0.4% sensitizing dose, 0.04% challenge dose weekly
[5] = 0.4% sensitizing dose, 0.04% challenge dose twice a week

## O=c1c(-c2ccccc2)c1-c1ccccc1 [DPCP, diphenylcyclopropenone]
non-genital warts [1]; [4]
  side effects reported: No significant side effects were reported other than skin rash at the sensitization site
  tolerability reported by patients: highly tolerable
non-genital warts [1]; DPCP group, 8 subjects, 0.4% sensitizing dose, then 0.04% gel weekly for 7 weeks
  subjects who obtained a clinical response/improvement: 100%
non-genital warts [1]; DPCP group, 11 of 25 warts, vs 1 of 15 vehicle treated warts, p=0.01
  warts with complete clearance: 44%
non-genital warts [1]; DPCP group, 19/25 warts, 0.4% sensitizing dose, then 0.04% gel weekly for 7 weeks
  warts with partial to complete clearance: 76%
non-genital warts [1]; challenge dose of 0.04% DPCP after 0.4% sensitizing dose
  severe reactions at the application site: did not result in observable severe reactions at the application site
non-genital warts [1]; one subject with numerous mosaic warts on the plantar foot, the 4 treated warts also completely cleared
  surrounding untreated warts completely cleared: > 50
non-genital warts [2]; 0.4% DPCP sensitization dose given to both treatment and placebo group, 7 subjects
  sensitization: all were successfully sensitized
non-genital warts [2]; [5]
  side effects reported: No significant side effects were reported other than skin rash at the sensitization site
  tolerability reported by patients: highly tolerable
non-genital warts [2]; DPCP group, 1 of 6 warts
  treated warts that achieved greater than 50% clearance: 16%
  treated warts that exhibited no clearance: 16%
non-genital warts [2]; DPCP group, 4/6 warts, 0.04% gel twice a week
  treated warts with complete clearance: 67%
non-genital warts [2]; DPCP group, 4 of 5 subjects, 0.04% gel twice a week for 7 weeks
  subjects who obtained a clinical response/improvement: 80%
non-genital warts [2]; at 5 weeks, 0.04% gel twice a week
  Clearance Score: 5 weeks + 3
non-genital warts [2]; at 7 weeks, 0.04% gel twice a week, listed as DPC
  Clearance Score: 7 weeks 0 and 7 weeks + 3 (3×) and 7 weeks + 2 (2 points=partial clearance: >50% reduction in the area of all treated wart)
[3]
  mutagenicity, teratogenicity and organ toxicity: not mutagenic, teratogenic and has no organ toxicity
